Data as given in paper PMC9127750, “Structure-based design of CDC42 effector interaction inhibitors for the treatment of cancer” (Cell reports, 2022).
Several values for one entry are separate records, joined by “and”; a condition that tells them apart may be missing. Identical values can stand only once.

Test system: WM3248 melanoma cells, 486 antibodies
Assay: Reverse phase protein arrays (RPPA)
Type: cell-based, Human
Conditions: normalized to 0
Source text: Pellets were snap frozen in liquid nitrogen and shipped to MD Anderson Cancer Center core RPPA facility for RPPA analysis (Table S5). Three biological replicates for each sample were generated.
Nomenclatures on the RPPA heatmaps: name_of_antibody.species_of_antibody.status_of_antibody. V - antibody validated; C - validation of antibody in progress; Q - antibody nonspecific; E – under evaluation; antibodies raised in M - mouse, G - goat, R - rabbit, or T - rat.

SMILES: CN(C)c1cccc(Nc2cc(-c3ccccc3)nc(C3CCNCC3)n2)c1 [ARN22089, N1,N1-dimethyl-N3-(6-phenyl-2-(piperidin-4-yl)pyrimidin-4-yl)benzene-1,3-diamine]
- EMA.M.C Norm_5 Average (5, average): 0.850
- ENY2.M.C Norm_5 Average (5, average): 0.965
- ER.a.R.V Norm_5 Average (5, average): 1.001
- ERCC1.R.C Norm_5 Average (5, average): 0.948
- ERCC5.R.C Norm_5 Average (5, average): 1.084
- ERRalpha.R.V Norm_5 Average (5, average): 0.950
- EVI1.R.V Norm_5 Average (5, average): 0.922
- Elk1_pS383.R.C Norm_5 Average (5, average): 1.032
- Enolase.1.R.V Norm_5 Average (5, average): 1.052
- Enolase.2.R.V Norm_5 Average (5, average): 0.966
- EphA2.R.V Norm_5 Average (5, average): 0.884
- EphA2_pS897.R.C Norm_5 Average (5, average): 0.843
- EphA2_pY588.R.C Norm_5 Average (5, average): 0.929
- Erk5.R.V Norm_5 Average (5, average): 1.026
- FABP5.R.C Norm_5 Average (5, average): 0.959
- FAK.R.C Norm_5 Average (5, average): 0.977
- FAK_pY397.R.V Norm_5 Average (5, average): 0.931
- FANCD2.R.V Norm_5 Average (5, average): 0.930
- FASN.R.V Norm_5 Average (5, average): 1.111
- FGF.basic.R.C Norm_5 Average (5, average): 0.987
- FN14.R.C Norm_5 Average (5, average): 1.118
- FOXM1.R.V Norm_5 Average (5, average): 0.915
- FOXO3.R.V Norm_5 Average (5, average): 1.012
- FRS2.alpha_pY196.R.V Norm_5 Average (5, average): 0.996
- FTO.R.V Norm_5 Average (5, average): 1.020
- Fibronectin.R.V Norm_5 Average (5, average): 1.193
- FoxO3a_pS318_S321.R.C Norm_5 Average (5, average): 0.972
- G6PD.R.V Norm_5 Average (5, average): 0.950
- GATA3.M.V Norm_5 Average (5, average): 1.077
- GATA6.R.V Norm_5 Average (5, average): 0.971
- GCLM.R.V Norm_5 Average (5, average): 0.967
- GCN5L2.R.V Norm_5 Average (5, average): 1.021
- GGPS1.M.V Norm_5 Average (5, average): 0.977
- GRB2.R.V Norm_5 Average (5, average): 1.022
- GRB7.R.V Norm_5 Average (5, average): 0.976
- GSK.3a.b.M.V Norm_5 Average (5, average): 0.937
- GSK.3a.b_pS21_S9.R.V Norm_5 Average (5, average): 1.111
- Gab2.R.V Norm_5 Average (5, average): 1.100
- Gli1.R.C Norm_5 Average (5, average): 0.999
- Gli3.R.C Norm_5 Average (5, average): 1.056
- Glucocorticoid.Receptor.R.V Norm_5 Average (5, average): 1.053
- Glutamate.D1.2.R.V Norm_5 Average (5, average): 0.990
- Grp75.R.C Norm_5 Average (5, average): 1.021
- Gys.R.V Norm_5 Average (5, average): 0.987
- Gys_pS641.R.V Norm_5 Average (5, average): 0.978
- H2AX_pS139.R.C Norm_5 Average (5, average): 1.026
- H2AX_pS140.M.C Norm_5 Average (5, average): 0.967
- HER2.M.V Norm_5 Average (5, average): 0.971
- HER2_pY1248.R.V Norm_5 Average (5, average): 1.023
- HER3.R.V Norm_5 Average (5, average): 0.924
- HER3_pY1289.R.C Norm_5 Average (5, average): 1.060
- HES1.R.V Norm_5 Average (5, average): 1.168
- eEF2.R.C Norm_5 Average (5, average): 1.217
- eEF2K.R.V Norm_5 Average (5, average): 1.024
- eIF4E.R.V Norm_5 Average (5, average): 1.028
- eIF4E_pS209.R.V Norm_5 Average (5, average): 0.945
- DNMT1.R.V Norm_5 (5, replicates 1-3): 0.988 and 0.998 and 1.098
- DRP1.R.V Norm_5 (5, replicates 1-3): 0.998 and 1.001
- DUSP4.R.V Norm_5 (5, replicates 1-3): 1.082 and 1.118 and 1.119
- DUSP6.R.C Norm_5 (5, replicates 1-3): 1.285 and 1.005 and 1.269
- DYRK1B.R.C Norm_5 (5, replicates 1-3): 0.880 and 0.877 and 1.004
- Dvl3.R.V Norm_5 (5, replicates 1-3): 0.981 and 1.018 and 0.968
- E2F1.R.V Norm_5 (5, replicates 1-3): 0.990 and 0.958 and 0.964
- E.Cadherin.R.V Norm_5 (5, replicates 1-3): 0.812 and 0.783 and 0.958
- EGFR.R.V Norm_5 (5, replicates 1-3): 0.998 and 1.139 and 0.952
- EGFR_pY1068.R.C Norm_5 (5, replicates 1-3): 0.901 and 0.903 and 1.000
- EGFR_pY1173.R.V Norm_5 (5, replicates 1-3): 1.024 and 1.026 and 1.016
- EMA.M.C Norm_5 (5, replicates 1-3): 0.673 and 0.895 and 0.983
- ENY2.M.C Norm_5 (5, replicates 1-3): 0.935 and 1.052 and 0.908
- ER.a.R.V Norm_5 (5, replicates 1-3): 0.980 and 1.004 and 1.018
- ER.a_pS118.R.V Norm_5 (5, replicates 1-3): 1.247
- ERCC1.R.C Norm_5 (5, replicates 1-3): 0.895 and 0.962 and 0.988
- ERCC5.R.C Norm_5 (5, replicates 1-3): 1.145
- ERRalpha.R.V Norm_5 (5, replicates 1-3): 0.932 and 0.933 and 0.985
- EVI1.R.V Norm_5 (5, replicates 1-3): 0.871 and 0.956 and 0.940
- Elk1_pS383.R.C Norm_5 (5, replicates 1-3): 1.029
- Enolase.1.R.V Norm_5 (5, replicates 1-3): 1.006 and 1.195 and 0.954
- Enolase.2.R.V Norm_5 (5, replicates 1-3): 0.936 and 1.012
- EphA2.R.V Norm_5 (5, replicates 1-3): 0.843 and 0.933 and 0.875
- EphA2_pS897.R.C Norm_5 (5, replicates 1-3): 0.767 and 0.950 and 0.814
- EphA2_pY588.R.C Norm_5 (5, replicates 1-3): 0.881 and 0.946 and 0.960
- Erk5.R.V Norm_5 (5, replicates 1-3): 0.987 and 1.054
- Ets.1.R.V Norm_5 (5, replicates 1-3): 1.139 and 1.226 and 0.851
- FABP5.R.C Norm_5 (5, replicates 1-3): 1.017 and 1.210 and 0.650
- FAK.R.C Norm_5 (5, replicates 1-3): 0.898 and 1.113 and 0.922
- FAK_pY397.R.V Norm_5 (5, replicates 1-3): 0.881 and 0.907 and 1.006
- FANCD2.R.V Norm_5 (5, replicates 1-3): 0.905 and 0.913 and 0.972
- FASN.R.V Norm_5 (5, replicates 1-3): 1.237 and 1.011 and 1.085
- FGF.basic.R.C Norm_5 (5, replicates 1-3): 0.849
- FN14.R.C Norm_5 (5, replicates 1-3): 1.117 and 1.165
- FOXM1.R.V Norm_5 (5, replicates 1-3): 0.776 and 0.924 and 1.046
- FOXO3.R.V Norm_5 (5, replicates 1-3): 0.964 and 1.056 and 1.017
- FRS2.alpha_pY196.R.V Norm_5 (5, replicates 1-3): 0.883 and 1.011
- FTO.R.V Norm_5 (5, replicates 1-3): 1.133 and 0.883
- Fibronectin.R.V Norm_5 (5, replicates 1-3): 1.256 and 1.230
- FoxO3a_pS318_S321.R.C Norm_5 (5, replicates 1-3): 0.972 and 1.006
- G6PD.R.V Norm_5 (5, replicates 1-3): 0.921 and 1.016 and 0.913
- GATA3.M.V Norm_5 (5, replicates 1-3): 1.233 and 0.961
- GATA6.R.V Norm_5 (5, replicates 1-3): 0.980 and 0.952 and 0.979
- GCLC.R.C Norm_5 (5, replicates 1-3): 1.128 and 0.940
- GCLM.R.V Norm_5 (5, replicates 1-3): 0.953 and 1.003
- GCN5L2.R.V Norm_5 (5, replicates 1-3): 0.975 and 1.052
- GGPS1.M.V Norm_5 (5, replicates 1-3): 0.942
- GRB2.R.V Norm_5 (5, replicates 1-3): 0.966 and 1.023 and 1.076
- GRB7.R.V Norm_5 (5, replicates 1-3): 1.030 and 0.936 and 0.962
- GSK.3B.R.C Norm_5 (5, replicates 1-3): 0.980 and 1.031 and 1.125
- GSK.3a.b.M.V Norm_5 (5, replicates 1-3): 1.010 and 0.971 and 0.830
- GSK.3a.b_pS21_S9.R.V Norm_5 (5, replicates 1-3): 1.277 and 1.230
- Gab2.R.V Norm_5 (5, replicates 1-3): 1.236 and 1.059 and 1.006
- Gli1.R.C Norm_5 (5, replicates 1-3): 0.936 and 0.961 and 1.099
- Gli3.R.C Norm_5 (5, replicates 1-3): 1.128 and 1.124 and 0.916
- Glucocorticoid.Receptor.R.V Norm_5 (5, replicates 1-3): 1.063 and 1.061 and 1.034
- Glutamate.D1.2.R.V Norm_5 (5, replicates 1-3): 1.128 and 0.932
- Glutaminase.R.C Norm_5 (5, replicates 1-3): 1.249 and 0.891
- Granzyme.B.R.V Norm_5 (5, replicates 1-3): 1.216 and 0.936
- Grp75.R.C Norm_5 (5, replicates 1-3): 0.988 and 1.124 and 0.950
- Gys.R.V Norm_5 (5, replicates 1-3): 0.964 and 0.981 and 1.016
- Gys_pS641.R.V Norm_5 (5, replicates 1-3): 1.014 and 0.854
- H2AX_pS139.R.C Norm_5 (5, replicates 1-3): 1.023 and 1.013
- H2AX_pS140.M.C Norm_5 (5, replicates 1-3): 0.966 and 1.110 and 0.827
- HER2.M.V Norm_5 (5, replicates 1-3): 0.993 and 0.940 and 0.980
- HER2_pY1248.R.V Norm_5 (5, replicates 1-3): 0.876 and 1.016
- HER3.R.V Norm_5 (5, replicates 1-3): 0.898 and 0.946 and 0.928
- HER3_pY1289.R.C Norm_5 (5, replicates 1-3): 1.034 and 1.212 and 0.933
- HES1.R.V Norm_5 (5, replicates 1-3): 1.299 and 1.047 and 1.158
- Heregulin.R.V Norm_5 (5, replicates 1-3): 1.014 and 1.131 and 1.059
- eEF2.R.C Norm_5 (5, replicates 1-3): 1.519 and 1.622 and 0.509
- eEF2K.R.V Norm_5 (5, replicates 1-3): 1.078 and 1.168
- eIF4E.R.V Norm_5 (5, replicates 1-3): 0.986 and 1.010
- eIF4E_pS209.R.V Norm_5 (5, replicates 1-3): 0.988 and 0.981
- eIF4G.R.C Norm_5 (5, replicates 1-3): 1.060 and 1.058 and 1.164
- DNMT1.R.V Norm_10 Average (10, average): 1.056
- DRP1.R.V Norm_10 Average (10, average): 0.998
- DUSP4.R.V Norm_10 Average (10, average): 0.891
- DUSP6.R.C Norm_10 Average (10, average): 1.050
- DYRK1B.R.C Norm_10 Average (10, average): 0.948
- Dvl3.R.V Norm_10 Average (10, average): 0.962
- E2F1.R.V Norm_10 Average (10, average): 1.083
- E.Cadherin.R.V Norm_10 Average (10, average): 0.939
- EGFR.R.V Norm_10 Average (10, average): 0.975
- EGFR_pY1068.R.C Norm_10 Average (10, average): 0.957
- EMA.M.C Norm_10 Average (10, average): 0.953
- ER.a.R.V Norm_10 Average (10, average): 0.921
- ERCC5.R.C Norm_10 Average (10, average): 0.962
- ERRalpha.R.V Norm_10 Average (10, average): 1.014
- EVI1.R.V Norm_10 Average (10, average): 1.011
- Elk1_pS383.R.C Norm_10 Average (10, average): 0.998
- Enolase.1.R.V Norm_10 Average (10, average): 1.160
- EphA2.R.V Norm_10 Average (10, average): 0.919
- EphA2_pS897.R.C Norm_10 Average (10, average): 0.866
- EphA2_pY588.R.C Norm_10 Average (10, average): 0.941
- Erk5.R.V Norm_10 Average (10, average): 0.877
- Ets.1.R.V Norm_10 Average (10, average): 1.306
- FABP5.R.C Norm_10 Average (10, average): 1.237
- FAK.R.C Norm_10 Average (10, average): 0.954
- FANCD2.R.V Norm_10 Average (10, average): 0.930
- FASN.R.V Norm_10 Average (10, average): 0.962
- FGF.basic.R.C Norm_10 Average (10, average): 0.946
- FOXM1.R.V Norm_10 Average (10, average): 0.929
- FOXO3.R.V Norm_10 Average (10, average): 1.081
- FRS2.alpha_pY196.R.V Norm_10 Average (10, average): 1.373
- FTO.R.V Norm_10 Average (10, average): 1.099
- Fibronectin.R.V Norm_10 Average (10, average): 1.015
